Laboratory results taken from article PMC8079033, “Design, synthesis, anticancer evaluation, and molecular modelling studies of novel tolmetin derivatives as potential VEGFR-2 inhibitors and apoptosis inducers” (Journal of Enzyme Inhibition and Medicinal Chemistry, 2021).

Tests used:
MOLT-4 = test: NCI 60-cell line one-dose antiproliferative screen (SRB); format: cell-based; details: Homo sapiens, read-out: growth inhibition % (GI%)
Method: (§1) Anticancer activity screening of the newly synthesised compounds was measured in vitro utilising 60 different human tumour cell lines provided by US National Cancer Institute according to previously reported standard procedure[41–43] as follows: Cells are inoculated into 96-well microtiter plates in 100 ml. After cell inoculation, the microtiter plates are incubated at 37 °C, 5% CO2, 95% air, and 100% relative humidity for 24 h prior to addition of experimental compounds. After 24 h, two plates of each cell line are fixed in situ with TCA, to represent a measurement of the cell population for each cell line at the time of compound addition (Tz). Experimental compounds are solubilised in dimethyl sulfoxide at 400-fold the desired final maximum test concentration and stored frozen prior to use. At the time of compound addition, an aliquot of frozen concentrate is thawed and diluted to twice the desired final maximum test concentration with a complete medium containing […] gentamicin. Aliquots of […] of the compounds dilutions are added to the appropriate microtiter wells already containing 100 ml of medium, resulting in the required final compound concentration. Following compound addition, the plates are incubated for an additional 48 h at 37 °C, 5% CO2, 95% air, and 100% relative humidity. For adherent cells, the assay is terminated by the addition of cold trichloroacetic acid (TCA). Cells are fixed in situ by the gentle addition of 50 ml of cold 50% (w/v) TCA (final concentration, 10% TCA) and incubated for […] at 4 °C. The supernatant is discarded, and the plates are washed five times with tap water and air-dried. Sulforhodamine B (SRB) solution (100 ml) at 0.4% (w/v) in 1% acetic acid is added to each well, and plates are incubated for 10 min at room temperature. After staining, the unbound dye is removed by washing five times with 1% acetic acid and the plates are air-dried. The bound stain is subsequently solubilised with a 10 mM trizma base, and the absorbance is read on an automated plate reader at a wavelength of 515 nm. For suspension cells, the methodology is the same except that the assay is terminated by fixing settled cells at the bottom of the wells by gently adding 50 ml of 80% TCA (final concentration, 16% TCA). Using the absorbance measurements [time zero, (Tz), control growth, (C), and test growth in the presence of compound (Ti)], the percentage growth is calculated for each compound. The One-dose data are reported as a mean graph of the percent growth of treated cells. The reported number is growth relative to the no-compound control, and relative to the time zero number of cells. This allows the detection of both growth inhibition and lethality.
(§2) Fifteen newly synthesised compounds were tested for their in vitro antiproliferative activity by the National Cancer Institute (NCI), Maryland, USA[50], under the Developmental Therapeutic Program (DTP)[41]^,[43]^,[51]^,[52]. The tested compounds were evaluated at a concentration of 10 µM on a panel of 60 tumour cell lines representing leukaemia and non-small cell lung, colon, CNS, melanoma, ovarian, renal, prostate, and breast cancers. The antiproliferative activity was presented by the NCI as percent growth of the treated cells and is presented in Table 1 as growth inhibition percentage (GI%) achieved by the tested compounds.

A549/ATCC = test: as above; format: cell-based; details: Homo sapiens, read-out: growth inhibition % (GI%)
Method: as §1, §2

HOP-92 = test: as above; format: cell-based; details: Homo sapiens, read-out: growth inhibition % (GI%)
Method: as §1, §2

SK-MEL-5 = test: as above; format: cell-based; details: Homo sapiens, read-out: growth inhibition % (GI%)
Method: as §1, §2

SN 12 C = test: as above; format: cell-based; details: Homo sapiens, SN12C, read-out: growth inhibition % (GI%)
Method: as §1, §2

PC-3 = test: as above; format: cell-based; details: Homo sapiens, read-out: growth inhibition % (GI%)
Method: as §1, §2

IGROV1 = test: as above; format: cell-based; details: Homo sapiens, IGROV-1, read-out: growth inhibition % (GI%)
Method: as §1, §2

SW-620 = test: as above; format: cell-based; details: Homo sapiens, read-out: growth inhibition % (GI%)
Method: as §1, §2

HOP-62 = test: as above; format: cell-based; details: Homo sapiens, read-out: growth inhibition % (GI%)
Method: as §1, §2

UACC-62 = test: as above; format: cell-based; details: Homo sapiens, read-out: growth inhibition % (GI%)
Method: as §1, §2

SNB-19 = test: as above; format: cell-based; details: Homo sapiens, read-out: growth inhibition % (GI%)
Method: as §1, §2

RPMI-8226 = test: as above; format: cell-based; details: Homo sapiens, read-out: growth inhibition % (GI%)
Method: as §1, §2

SNB-75 = test: as above; format: cell-based; details: Homo sapiens, read-out: growth inhibition % (GI%)
Method: as §1, §2

NCI-H226 = test: as above; format: cell-based; details: Homo sapiens, read-out: growth inhibition % (GI%)
Method: as §1, §2

T-47D = test: as above; format: cell-based; details: Homo sapiens, T47D, read-out: growth inhibition % (GI%)
Method: as §1, §2

UO-31 = test: as above; format: cell-based; details: Homo sapiens, read-out: growth inhibition % (GI%)
Method: as §1, §2

HS 578 T = test: as above; format: cell-based; details: Homo sapiens, read-out: growth inhibition % (GI%)
Method: as §1, §2

NCI-H23 = test: as above; format: cell-based; details: Homo sapiens, read-out: growth inhibition % (GI%)
Method: as §1, §2

OVCAR-8 = test: as above; format: cell-based; details: Homo sapiens, read-out: growth inhibition % (GI%)
Method: as §1, §2

MDA-MB-231/ATCC = test: as above; format: cell-based; details: Homo sapiens, read-out: growth inhibition % (GI%)
Method: as §1, §2

SF-268 = test: as above; format: cell-based; details: Homo sapiens, read-out: growth inhibition % (GI%)
Method: as §1, §2

NCI-H522 = test: as above; format: cell-based; details: Homo sapiens, read-out: growth inhibition % (GI%)
Method: as §1, §2

UACC-257 = test: as above; format: cell-based; details: Homo sapiens, read-out: growth inhibition % (GI%)
Method: as §1, §2

HCT-15 = test: as above; format: cell-based; details: Homo sapiens, read-out: growth inhibition % (GI%)
Method: as §1, §2

ACHN = test: as above; format: cell-based; details: Homo sapiens, read-out: growth inhibition % (GI%)
Method: as §1, §2

HCT-116 = test: as above; format: cell-based; details: Homo sapiens, read-out: growth inhibition % (GI%)
Method: as §1, §2

K-562 = test: as above; format: cell-based; details: Homo sapiens, K562, read-out: growth inhibition % (GI%)
Method: as §1, §2

MCF7 = test: as above; format: cell-based; details: Homo sapiens, read-out: growth inhibition % (GI%)
Method: as §1, §2

HCC-2998 = test: as above; format: cell-based; details: Homo sapiens, read-out: growth inhibition % (GI%)
Method: as §1, §2

LOX IMVI = test: as above; format: cell-based; details: Homo sapiens, read-out: growth inhibition % (GI%)
Method: as §1, §2

CAKI-1 = test: as above; format: cell-based; details: Homo sapiens, read-out: growth inhibition % (GI%)
Method: as §1, §2

OVCAR-4 = test: as above; format: cell-based; details: Homo sapiens, read-out: growth inhibition % (GI%)
Method: as §1, §2

U251 = test: as above; format: cell-based; details: Homo sapiens, U-251, read-out: growth inhibition % (GI%)
Method: as §1, §2

OVCAR-5 = test: as above; format: cell-based; details: Homo sapiens, read-out: growth inhibition % (GI%)
Method: as §1, §2

EKVX = test: as above; format: cell-based; details: Homo sapiens, read-out: growth inhibition % (GI%)
Method: as §1, §2

SF-539 = test: as above; format: cell-based; details: Homo sapiens, read-out: growth inhibition % (GI%)
Method: as §1, §2

BT-5 = test: as above; format: cell-based; details: Homo sapiens, read-out: growth inhibition % (GI%)
Method: as §1, §2

A498 = test: as above; format: cell-based; details: Homo sapiens, read-out: growth inhibition % (GI%)
Method: as §1, §2

SK-OV-3 = test: as above; format: cell-based; details: Homo sapiens, read-out: growth inhibition % (GI%)
Method: as §1, §2

MDA-MB-435 = test: as above; format: cell-based; details: Homo sapiens, read-out: growth inhibition % (GI%)
Method: as §1, §2

KM12 = test: as above; format: cell-based; details: Homo sapiens, read-out: growth inhibition % (GI%)
Method: as §1, §2

SK-MEL-28 = test: as above; format: cell-based; details: Homo sapiens, read-out: growth inhibition % (GI%)
Method: as §1, §2

M14 = test: as above; format: cell-based; details: Homo sapiens, read-out: growth inhibition % (GI%)
Method: as §1, §2

NCI/ADR-RES = test: as above; format: cell-based; details: Homo sapiens, read-out: growth inhibition % (GI%)
Method: as §1, §2

CCRF-CEM = test: as above; format: cell-based; details: Homo sapiens, read-out: growth inhibition % (GI%)
Method: as §1, §2

NCI-H322M = test: as above; format: cell-based; details: Homo sapiens, read-out: growth inhibition % (GI%)
Method: as §1, §2

HL-60 (TB) = test: as above; format: cell-based; details: Homo sapiens, read-out: growth inhibition % (GI%)
Method: as §1, §2

SK-MEL-2 = test: as above; format: cell-based; details: Homo sapiens, read-out: growth inhibition % (GI%)
Method: as §1, §2

Question: What does the source list for `Cc1ccc(C(=O)c2ccc(CC(=O)NNC(=O)Nc3c(Cl)cccc3Cl)n2C)cc1` [Compound 8a, N-(2,6-Dichlorophenyl)-2–(2-(1-methyl-5–(4-methylbenzoyl)-1H-pyrrol-2-yl)acetyl) hydrazinecarboxamide]?
Answer: melting point: 245 to 247 °C; inhibition at 10 µM (MOLT-4): < 10%; inhibition at 10 µM (A549/ATCC): < 10%; inhibition at 10 µM (HOP-92): < 10%; inhibition at 10 µM (SK-MEL-5): < 10%; inhibition at 10 µM (SN 12 C): < 10%; inhibition at 10 µM (PC-3): 10.5%; inhibition at 10 µM (IGROV1): 14%; inhibition at 10 µM (SW-620): < 10%; inhibition at 10 µM (HOP-62): 11.4%; inhibition at 10 µM (UACC-62): 11.1%; inhibition at 10 µM (SNB-19): 17.7%; inhibition at 10 µM (RPMI-8226): < 10%; inhibition at 10 µM (SNB-75): 28.1%; inhibition at 10 µM (NCI-H226): < 10%; inhibition at 10 µM (T-47D): 18%; inhibition at 10 µM (UO-31): 31.1%; inhibition at 10 µM (HS 578 T): < 10%; inhibition at 10 µM (NCI-H23): < 10%; inhibition at 10 µM (OVCAR-8): < 10%; inhibition at 10 µM (MDA-MB-231/ATCC): < 10%; inhibition at 10 µM (SF-268): < 10%; inhibition at 10 µM (NCI-H522): 15.9%; inhibition at 10 µM (UACC-257): < 10%; inhibition at 10 µM (HCT-15): < 10%; inhibition at 10 µM (ACHN): < 10%; inhibition at 10 µM (HCT-116): < 10%; inhibition at 10 µM (K-562): < 10%; inhibition at 10 µM (MCF7): 10%; inhibition at 10 µM (HCC-2998): < 10%; inhibition at 10 µM (LOX IMVI): < 10%; inhibition at 10 µM (CAKI-1): 14.9%; inhibition at 10 µM (OVCAR-4): 16%; inhibition at 10 µM (U251): 11.7%; inhibition at 10 µM (OVCAR-5): < 10%; inhibition at 10 µM (EKVX): < 10%; inhibition at 10 µM (SF-539): < 10%; inhibition at 10 µM (BT-5): < 10%; inhibition at 10 µM (A498): < 10%

Question: What does the source list for `Cc1ccc(C(=O)c2ccc(CC(=O)NN3C(=O)c4ccccc4C3=O)n2C)cc1` [Compound 7c, N-(1,3-Dioxoisoindolin-2-yl)-2–(1-methyl-5–(4-methylbenzoyl)-1H-pyrrol-2-yl) acetamide]?
Answer: melting point: > 300 °C; inhibition at 10 µM (SK-OV-3): < 10%; inhibition at 10 µM (MOLT-4): 10.6%; inhibition at 10 µM (A549/ATCC): 14%; inhibition at 10 µM (SK-MEL-5): < 10%; inhibition at 10 µM (SN 12 C): < 10%; inhibition at 10 µM (MDA-MB-435): < 10%; inhibition at 10 µM (PC-3): < 10%; inhibition at 10 µM (IGROV1): 14.8%; inhibition at 10 µM (KM12): < 10%; inhibition at 10 µM (SW-620): < 10%; inhibition at 10 µM (HOP-62): < 10%; inhibition at 10 µM (SK-MEL-28): < 10%; inhibition at 10 µM (SNB-19): < 10%; inhibition at 10 µM (SNB-75): 17.9%; inhibition at 10 µM (M14): < 10%; inhibition at 10 µM (NCI/ADR-RES): < 10%; inhibition at 10 µM (CCRF-CEM): < 10%; inhibition at 10 µM (NCI-H226): < 10%; inhibition at 10 µM (T-47D): 25.5%; inhibition at 10 µM (UO-31): 27.3%; inhibition at 10 µM (HS 578 T): < 10%; inhibition at 10 µM (NCI-H23): < 10%; inhibition at 10 µM (OVCAR-8): < 10%; inhibition at 10 µM (MDA-MB-231/ATCC): < 10%; inhibition at 10 µM (SF-268): < 10%; inhibition at 10 µM (NCI-H522): 14.4%; inhibition at 10 µM (NCI-H322M): < 10%; inhibition at 10 µM (HL-60 (TB)): < 10%; inhibition at 10 µM (HCT-15): < 10%; inhibition at 10 µM (ACHN): < 10%; inhibition at 10 µM (SK-MEL-2): < 10%; inhibition at 10 µM (HCT-116): < 10%; inhibition at 10 µM (K-562): < 10%; inhibition at 10 µM (MCF7): < 10%; inhibition at 10 µM (LOX IMVI): 10.2%; inhibition at 10 µM (CAKI-1): < 10%; inhibition at 10 µM (U251): < 10%; inhibition at 10 µM (EKVX): 24.5%; inhibition at 10 µM (BT-5): < 10%; inhibition at 10 µM (A498): 13.3%
